Data set [1] can be described thus: In vivo safety evaluation: violacein content remaining in body after feeding (LC/MS). Particulars: chicken (broiler), cecum luminal intestinal contents, oral, 50 ppm in feed; broilers fed feed comprising 50 ppm violacein for 7 days; read-out: Violacein content (mg/kg), Cecum luminal intestinal contents. How it is done: The safety evaluation of violacein was conducted in a breeding facility under the condition described in Example 1. At 7 days of age, broilers were fed a feed comprising 50 ppm violacein for 7 days, and an autopsy was conducted at 14 days of age, and the feed, appendix luminal intestinal contents, blood, spleen, liver and kidney were collected. For the feed used in formulation with the violacein, Daehanfeed Al-Choi product was used.
Each sample of the collected tissue was tested for the content of violacein through the HPLC method. For feed pretreatment, 1 g of each treatment group was weighed and diluted by adding 10 ? of MTBE solution, and then sonication was progressed for 1 hour, and filtration was performed using a […] syringe filter. Then, after evaporating the filtered sample for 1 hour, 1 ? , of 100% methanol was added. In addition, sonication was conducted for 1 minute, and it not dissolved, the supernatant was filtered once more using a […] syringe filter, and then placed in a vial for analysis. […] Then, the samples in which pretreatment was completed were analyzed using a set LC/MS instrument to measure the amount of violacein remaining in a body after feeding, and the result was shown in Table 13 below. In Table 13, ND (not detected) means not detected.

For data set [2], the system named is Eimeria maxima (E. maxima) protozoa (sporozoites). Kind of data set: Acid resistance of violacein: protozoal death rate after acid exposure. Format: cell-based. How it is done:
In the present example, the acid resistance of the violacein was to be evaluated. […] Then, it was neutralized (pH 7.0) by adding sodium hydroxide (NaOH) solution, and 200,000 Eimeria maxima (E. maxima) protozoa (sporozoites) were exposed to the violacein at various concentrations of 0.1 to 100 ppm diluted using PBS solution, and they were reacted at a temperature of 41° C. for 4 hours. In Table 11, the control group means a violacein treatment group without treating the acidic condition, and the protozoa alone means a group to which violacein was not treated.

On to `O=C1N=c2ccccc2=C1c1cc(-c2c[nH]c3ccc(O)cc23)[nH]c1O` [Violacein, 3-(2-(5-Hydroxyindol-3-yl)-5-oxo-2-pyrrolin-4-ylidene)-2-indolinone], for which the concentration at 7 days of feeding in data set [1] turned out to be 2100 ng/g. Besides, the “Death rate according to violacein treatment condition” value (“Death rate according” for short) in data set [2] (Control group (no acidic condition), 0.1 ppm) was 64%; in data set [2] (Control group (no acidic condition), 1 ppm), 85%; in data set [2] (Control group (no acidic condition), 10 ppm), 100%; in data set [2] (Control group (no acidic condition), 100 ppm, 41° C. 4 hours), 100.00%; in data set [2] (pH 2, 1 h, 0.1 ppm), 64%; in data set [2] (pH 2, 1 h, 1 ppm), 84%. The “Death rate according” value in data set [2] (pH 2, 1 h, 10 ppm) came to 99%; in data set [2] (pH 2, 1 h, 100 ppm) it was 100.00%; in data set [2] (pH 2.5, 1 h, 0.1 ppm), 61%; in data set [2] (pH 2.5, 1 h, 1 ppm), 83%; in data set [2] (pH 2.5, 1 h, 10 ppm) it was 99%; in data set [2] (pH 2.5, 1 h, 100 ppm), 100.00%. For the same compound, the “Death rate according” value is listed as 63% in data set [2] (pH 3, 1 h, 0.1 ppm); 86% in data set [2] (pH 3, 1 h, 1 ppm); 99% in data set [2] (pH 3, 1 h, 10 ppm); 100.00% in data set [2] (pH 3, 1 h, 100 ppm). Besides, in data set [2] (acidic pH, 40° C., 1 hour, then neutralized), the “Acid resistance (killing efficacy after strong acidic condition)” value is reported as “did not lose the killing efficacy”.

The values above are taken from patent US12721835B2, “Anticoccidial composition comprising violacein, and use thereof” (CJ CHEILJEDANG CORPORATION, priority 2020, dated 2026).
